Data on two compounds can be found in article PMC11125453, “A Novel 2-Methoxyestradiol Derivative: Disrupting Mitosis Inhibiting Cell Motility and Inducing Apoptosis in HeLa Cells In Vitro” (Pharmaceutics, 2024).

A word on the pEC50: it is the negative decadic logarithm of the EC50, by convention in mol/L.

One assay concerns the target T1, ERα (Homo sapiens, UniProt P03372).
T1 construct: T47D-ERE-Luc^Neo, an ERα-positive cell line, stably transfected with a luciferase reporter cassette; endogenous in cells; host or cells: T47D-ERE-Luc^Neo
T1 sequence (P03372 1-595): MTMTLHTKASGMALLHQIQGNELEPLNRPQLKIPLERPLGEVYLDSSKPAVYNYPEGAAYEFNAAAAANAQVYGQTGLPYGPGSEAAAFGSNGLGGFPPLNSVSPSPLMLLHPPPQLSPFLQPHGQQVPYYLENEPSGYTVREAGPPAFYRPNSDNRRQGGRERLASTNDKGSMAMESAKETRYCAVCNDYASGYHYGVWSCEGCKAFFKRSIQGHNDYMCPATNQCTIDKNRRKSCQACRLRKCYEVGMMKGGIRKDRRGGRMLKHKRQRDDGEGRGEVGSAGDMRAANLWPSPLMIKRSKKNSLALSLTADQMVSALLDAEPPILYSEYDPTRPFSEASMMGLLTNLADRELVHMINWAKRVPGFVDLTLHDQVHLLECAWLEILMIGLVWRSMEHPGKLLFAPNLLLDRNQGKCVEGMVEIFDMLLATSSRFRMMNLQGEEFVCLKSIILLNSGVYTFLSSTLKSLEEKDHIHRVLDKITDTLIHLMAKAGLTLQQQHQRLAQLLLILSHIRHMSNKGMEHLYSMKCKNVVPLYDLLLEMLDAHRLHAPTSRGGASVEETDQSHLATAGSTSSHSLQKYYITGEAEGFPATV
As to the kind of experiment: Estrogenic activity luciferase reporter assay in T47D-ERE-Luc^Neo. It counts as cell-based. The note with it: 24 h incubation, read-out: EC50, oestrogenic activity (transcriptional activity of oestrogen-responsive luciferase reporter). Here is the method: The in vitro oestrogenic activity of our test compound was determined by utilizing the T47D-ERE-Luc^Neo, an ERα-positive cell line, stably transfected with a luciferase reporter cassette. On the first day of the experiment, cells were seeded onto 96-well microplates in a density of 50,000 cells/well. After 72 h of incubation, the medium was changed to phenol red-free RPMI, containing 10% charcoal-stripped FBS. This step was repeated for another four consecutive days to deplete the intracellular oestrogen content. […]. After 24 h of incubation, the supernatant was removed from the wells and the One-Glo™ firefly luciferase reagent was added according to the manufacturer’s instructions (Promega Corp., Madison, WI, USA). Following a 5 min incubation period, the luciferase enzyme activity was measured using a luminometer (FLUOstar OPTIMA, BMG Labtech GmbH, Ortenberg, Germany). Each concentration was assayed in triplicates, repeated twice. Relative luminescence units (RLU) were normalised to percentage values, and sigmoidal concentration–response curves were fitted to the data points using GraphPad Prism 9.5.1 (GraphPad Software, San Diego, CA, USA).
For orientation: In a reporter assay the amount or activity of a reporter protein is the signal.

Assay [1] has as its system HeLa cells. As to the kind of experiment: Hoechst 33258-propidium iodide fluorescent double staining. It counts as cell-based, human. The note with it: 1.0, 2.5, 5.0 and 10 μM, 48 h. Here is the method:
Fluorescence staining was conducted to observe the morphological changes induced by the apoptotic process in cells treated with the compound 4a. HeLa cell suspension was seeded into 6-well plates at a density of 150,000 cells per well and allowed to repose for 24 h before exposure to different concentrations of our test substance (1.0, 2.5, 5.0, and 10 μM) for 48 h. To distinguish apoptotic and necrotic cell populations, the cells were stained with lipophilic Hoechst 33258 (1 μg/mL, HO) and hydrophilic propidium iodide (3 μg/mL, PI) for 90 min at 37 °C in a CO2 incubator. Following the removal of the remaining dye-containing medium, a Nikon Eclipse TS100 fluorescence microscope (Nikon Instruments Europe, Amstelveen, The Netherlands) was used to capture at least 4 images per condition. The microscope was equipped with suitable optical blocks for Hoechst 33258 (excitation: 360/40 nm bandpass filter, emission: 460/50 nm bandpass filter, and 400 nm dichromatic mirror) and propidium iodide (excitation: 500/20 nm bandpass filter, emission: 520 nm long pass filter, and 515 nm dichromatic mirror). This technique enables differentiation between early apoptosis and secondary necrosis by examining the nuclear morphology and membrane integrity of cells. The HO dye solution readily permeates into the nuclei of all cells, resulting in a uniform blue staining in the nuclei of the viable cells. […]

Assay [2] has as its system HeLa cells. As to the kind of experiment: MTT assay for cell viability, 24 h. The note with it: concentrations corresponding the IC50 of 4a. It counts as cell-based, human. The method, then: (§1) The extent of the inhibition of cell proliferation by the test compound was determined using the MTT (3-(4,5-dimethylthiazol-2-yl)-2,5-diphenyltetrazolium bromide) assay. Exponentially growing HeLa cells were seeded into 96-well plates at a density of 1.0 × 10^4 cells per well in 100 µL of media and incubated for 24 h to facilitate cell attachment. Subsequently, the cells were treated with test compounds formulated in 100 µL of media at six different concentrations of compounds ranging, from 0.1 to 30 µmol. The control group received only media treatment. After 24 h of incubation, 22 µL of MTT solution (5 mg/mL in PBS; Duchefa Biochemie BV, Haarlem, The Netherlands) was added and incubated for 4 h at 37 °C in a humidified 5% CO2 environment. The medium was subsequently aspirated, and 100 µL of DMSO was added to dissolve the formazan crystals produced by the intact cell’s mitochondrial enzymes. The mixture was then mechanically shaken for 30 min. Absorbance measurements were taken at 545 nm using a microplate UV-VIS reader (SPECTRO star Nano, BMG Labtech GmbH, Offenburg, Germany), followed by the calculation of the percentage cell viability using the GraphPad Prism 5.01 (GraphPad Software, San Diego, CA, USA). All in vitro experiments were performed twice with five replicates. Stock solutions of the tested substances (10 mM) were prepared in DMSO.

Assay [3] has as its system NIH/3T3 cells. Put plainly: Growth inhibition on non-cancerous mouse fibroblast cells, previous study. It counts as cell-based. The note with it: ratio of IC50 values of NIH/3T3 and HeLa.
In assay [4] the test system is HeLa cells. Put plainly: Wound-healing assay. The note with it: 5.0 µM. It is filed as cell-based, human. The method, then:
Due to the significant contribution of cell motility to tumour metastasis, we performed a wound-healing assay, utilizing a 2D model, to explore the antimigratory potential of compound 4a on HeLa cells. Special silicon inserts (Ibidi GmbH, Gräfelfing, Germany) were utilised, with 50,000 cells per well implanted on 12-well plates in a standard EMEM medium supplemented with 10% FBS. Following overnight incubation, the inserts were carefully removed, and the confluent monolayers were washed with PBS. Cells were then treated with sub-antiproliferative concentrations (1.0, 2.5 and 5.0 µM) of compound 4a in the EMEM medium containing 2% FBS. Images were then captured at 0, 24, and 48 h post-treatment using a Nikon Eclipse TS100 fluorescence microscope (Nikon Instruments Europe, Amstelveen, The Netherlands). Untreated cells served as the control, and the rate of wound closure (the decrease in size of the gaps devoid of cells) was measured using ImageJ software v1.54 (National Institutes of Health, Bethesda, MD, USA).

Assay [5] has as its system HeLa cells. Also on record: method as in PMID 35091086. The note with it: HeLa cell line; cited from earlier work.
Assay [6] relates to NIH/3T3 cells. Also on record: method as in PMID 35091086. The note with it: read-out: IC50 on non-cancerous mouse fibroblast (NIH/3T3) cells; cited from earlier work.
The subject of assay [7] is HeLa cells. Put plainly: Boyden chamber invasion assay. It is filed as cell-based, human. The note with it: 5.0 µM, 24 h. Here is the method:
Compound 4a’s capacity to inhibit tumour invasion was assessed using the Boyden chamber assay, a three-dimensional model, on a profoundly invasive HPV-18 positive cell line. The polyethylene terephthalate (PET) membrane (8 μm pore size) and the thin layer of the matrigel basement matrix in special Boyden chamber inserts (BioCoat™ Matrigel® Invasion Chambers, Corning Inc., Corning, NY, USA) were prehydrated (2 h, serum-free EMEM) and placed onto a 24-well plate. The cell suspension (50,000 cells/insert in 500 μL) prepared in the serum-free EMEM with sub-antiproliferative concentrations (1.0, 2.5, and 5.0 μM) of 4a was nested in the upper compartments. Untreated cells were used as controls, with the EMEM medium supplemented with 10% FBS, and served as a chemoattractant in the lower chambers. After 24 h of incubation, supernatants and non-invading cells were removed cautiously with a cotton swab. […] Subsequently, 4 images per chamber were taken with a Nikon Eclipse TS100 fluorescence microscope (Nikon Instruments Europe, Amstelveen, The Netherlands), and the number of invading cells were enumerated using ImageJ software (National Institutes of Health, Bethesda, MD, USA). The invasion rate was determined by comparing the number of invaded cells in the treated samples with the number of invaded cells in the untreated control samples.

Another assay relates to T47D cells. Put plainly: MTT assay, growth inhibition of T47D, 72 h. It counts as cell-based. The note with it: Homo sapiens, 72 h incubation. Here is the method:
as §1, with “The medium was subsequently aspirated, and 100 µL of DMSO was added to dissolve the formazan crystals produced by the intact cell’s mitochondrial enzymes. The mixture was then mechanically shaken for 30 min.” left out, “All in vitro experiments were performed twice with five replicates. Stock solutions of the tested substances (10 mM) were prepared in DMSO.” left out
The MTT assay was conducted as described in Section 2.5, with the incubation time extended to 72 h. IC50 values were determined by fitting sigmoidal concentration–response curves using GraphPad Prism 9.5.1 (GraphPad Software, San Diego, CA, USA). […]

For another assay, the system named is MCF7 cells. As to the kind of experiment: MTT assay, growth inhibition of MCF7, 72 h. It counts as cell-based. The note with it: Homo sapiens, 72 h incubation. A general note: Formazan colour is commonly taken as a measure of viable cells.
The next assay has as its system tubulin. As to the kind of experiment: Cell-free tubulin polymerisation assay. It is filed as biochemical. Here is the method: To assess the impact of test compound 4a on the microtubular system, a cell-free tubulin polymerisation assay was conducted using a commercially available kit (Cytoskeleton Inc., Denver, CO, USA), largely in accordance with manufacturer’s instructions, though with some modifications. The assay was performed in a pre-heated 96-well plate, with each condition tested in two parallel wells. Two wells were assigned as the experimental control and received 10 µL of general tubulin buffer (GTB), while the next two wells were assigned as the positive control and received a similar volume of 10 µM paclitaxel. Various concentrations of the test compound (50, 150, 300, and 600 µM) were added in similar volumes, and the polymerisation reaction was initiated by adding 100 µL of tubulin to each well. Absorbance readings were measured every minute for 60 min at 340 nm, following a kinetic measurement protocol. A similar experiment was repeated with the absence of glycerol in the reaction mixture and in exclusion of 50, 150 µM of our test compound. […] The maximum rate of tubulin polymerisation (Vmax) was determined as the highest difference between a set of three absorbance values at any two consecutive intervals.

The test system of assay [8] is HeLa cells. As to the kind of experiment: Cell cycle analysis using flow cytometry. It is filed as cell-based, human. The note with it: 18 h incubation; 1.25, 2.5, 5.0 and 10 µM. Here is the method:
Cell cycle analysis was performed to elucidate a possible mechanism of action of the compound 4a. Cells were seeded in a 12-well plate at a density of 120,000 cells per well and incubated overnight. […] The supernatant from each treatment was collected separately, and the cells were washed with PBS and detached using trypsin. The resulting supernatant containing the cells was centrifuged at 1300 rpm for 5 min. The cells were then washed with PBS and fixed with 70% ice-cold ethanol at −20 °C for 20 min. To stain the DNA content, the cells were treated with 300 µL of staining solution, which consisted of 10 µg/mL PI, 0.1% sodium citrate, 0.1% triton-X, and 10 µg/mL RNase-A, all dissolved in injectable water. The staining process was carried out in the dark for 30 min. The cells were subjected to analysis using a flow cytometer (CytoFLEX-V0-B4-RO, Beckman Coulter, Brea, CA, USA) with a minimum of 10,000 events per sample being evaluated during each analysis. The data obtained were processed using ModFit LT 3.3.11 software (Verity Software House, Topsham, ME, USA). Untreated cells were utilised as the control group. Apoptotic cells were identified as the hypodiploid (subG1) cell population. The cell cycle analysis experiments were conducted twice, with three parallel samples for each condition.

pEC50, pIC50: −log10 of the molar value.

Regarding `COc1cc2c(cc1O)CC[C@@H]1[C@@H]2CC[C@]2(C)[C@@H](O)CC[C@@H]12` [Compound 2ME, 2-methoxyestradiol], at ERα, the pEC50 is 7.95.

With `CN(C)Cc1cc2c(cc1O)CC[C@@H]1[C@@H]2CC[C@]2(C)[C@@H](O)CC[C@@H]12` [Compound 4a, 2-[(dimethylamino)methyl]-oestradiol], the “nuclei emitting intense blue fluorescence (DNA condensation, early apoptosis)” value with HeLa cells [1] is on record as “concentration-dependent escalation”. In addition, the “cell viability change after 24 h incubation” value in the assay on HeLa cells [2] is “no significant alteration in cell viability”. The “selectivity index (SI)” value with NIH/3T3 cells [3] amounted to 15.6. Moreover, the “reduction in the migratory capacity of HeLa cells relative to the control” value stood at 53.9% in the assay on HeLa cells [4] (24 h of treatment) and 39.6% in the assay on HeLa cells [4] (48 h of treatment). For the same compound, the pIC50 was 5.34 in the assay on HeLa cells [5], 4.15 with NIH/3T3 cells [6], 4.77 in the assay on T47D cells and 4.72 with MCF7 cells. Further, the “decrease in number of invading cells (anti-invasive activity) vs control” value in the assay on HeLa cells [7] is reported as “more than 95%”. For the same compound, the pEC50 at ERα was 6.19. In addition, the “concentration of maximum tubulin polymerisation effect” value in the assay on tubulin (absence of glycerol) is given as “approximately 300 µM”. The “effect on tubulin polymerisation relative to the control” value with tubulin (all tested concentrations (50, 150, 300, 600 µM), presence or absence of glycerol) is “significant increase in tubulin polymerisation”. Besides, in the assay with HeLa cells [8], the “effect on G2/M phase population” value is “significant cell arrest at the G2/M phase”. Also, in the assay with HeLa cells [8], the “effect on hypodiploid sub-G1 population” value was “significant rise in the hypodiploid sub-G1 population”.
